The subject of the first assay is human TNF-α. As to the kind of experiment: TNF-α assay: suppression of TNF-α production by LPS-stimulated PBMC (ELISA). The assay is classed as cell-based. The conditions noted are these: Homo sapiens, PBMC; Table 2; LPS 1 μg/ml, 72 hours. As for the experimental part:
Peripheral blood mononuclear cells (herein referred as PBMC), in response to stimulation by lipopolysaccharide (LPS), a gram-negative bacterial endotoxin, produce various […], in particular human TNF-α and IL-1 β. Inhibition of the activation of PBMC can therefore be measured by the level of suppression of the production of TNF-α or IL-1 β by PBMC in response to stimulation by LPS.
(§1) Such inhibition measurement was performed as follows: PBMC were isolated from heparinized peripheral blood by density gradient centrifugation over Lymphoprep (commercially available from Nycomed, Norway). LPS was then added to the PMBC suspension in complete medium (10^6 cells/ml) at a final concentration of 1 μg/ml. The pteridine derivative to be tested was added at different concentrations (0.1 μM, 1 μM and 10 μM) and the cells were incubated at 37° C. for 72 hours in 5% CO2. The supernatants were collected, then TNF-α and/or IL-1 β concentrations were measured with respectively an anti-TNF-α antibody or an anti-IL-1 β antibody in a sandwich ELISA (Duo Set ELISA human TNFα, commercially available from R&D Systems, United Kingdom). The calorimetric reading of the ELISA was measured by a Multiskan RC plate reader (commercially available from ThermoLabsystems, Finland) at 450 nm (reference wavelength: 690 nm). Data analysis was performed with Ascent software 2.6. (also from ThermoLabsystems, Finland): a standard curve (recombinant human TNFα) was drawn and the amount (pg/ml) of each sample on the standard curve was determined.
The % suppression of human TNFα production or human IL-1 β by the pteridine derivatives of the invention (drugs) was calculated using the formula: […]
Peripheral blood mononuclear cells (herein referred as PBMC), in response to stimulation by lipopolysaccharide (hereinafter LPS), a gram-negative bacterial endotoxin, produce various […], in particular human TNF-α. Inhibition of the activation of PBMC can therefore be measured by the level of suppression of the production of TNF-α by PBMC in response to stimulation by LPS.
as §1, with “TNF-α” for “TNF-α and/or IL-1 β”, “with” for “with respectively”, “anti-TNF-α” for “anti-TNF-α antibody or an anti-IL-1 β”, “TNF-α,” for “TNFα,”, “colorimetric” for “calorimetric”
The % suppression of human TNFα production by the pteridine derivatives of the invention (drugs) was calculated using the formula: […]
A general note: ELISA stands for enzyme-linked immunosorbent assay.
The term IC50 denotes the point on the concentration scale where inhibition reaches its midpoint. Higher therefore signals weaker potency in that assay. In turn, `CCOc1nc(N)nc2ncc(-c3ccc(OC)cc3)nc12` [Example 13, 2-amino-6-(p-methoxyphenyl)-4-ethoxy-pteridine] returned a 50% inhibitory concentration (IC50) of 4.5 µM.

`CCOc1nc(N)nc2ncc(-c3ccccc3OC)nc12` [Example 14, 2-amino-6-(o-methoxyphenyl)-4-ethoxy-pteridine] yielded a concentration for half-maximal inhibition (IC50) of over 10 µM.

On to `CC(C)Oc1nc(N)nc2ncc(-c3ccc(C(F)(F)F)cc3)nc12` [Example 36, 2-amino-6-(p-trifluoromethylphenyl)-4-isopropoxypteridine], for which the half-maximal inhibitory concentration (IC50) turned out to be 9.1 µM.

Turning to `CC(C)Oc1nc(N)nc2ncc(-c3ccc(F)c(F)c3)nc12` [Example 37, 2-amino-6-(3,4-difluorophenyl)-4-isopropoxypteridine], the IC50 came to 6.6 µM.

With `CCOc1ccc(-c2cnc3nc(N)nc(OC(C)C)c3n2)cc1` [Example 39, 2-amino-6-(p-ethoxyphenyl)-4-isopropoxypteridine], the IC50 is over 10 µM.

For `CC(C)Oc1nc(N)nc2ncc(-c3ccc(C#N)cc3)nc12` [Example 42, 2-amino-6-(p-cyanophenyl)-4-isopropoxypteridine], the half-inhibitory concentration (IC50) was found to be 6.3 µM.

Still in this assay, the particulars now being: Table 2; LPS 1 μg/ml, 72 hours.
In the case of `CC(C)Oc1nc(N)nc2c1ncc[n+]2[O-]` [Example 10, 2-amino-4-isopropoxypteridine-N^8-oxide], the IC50 was 4 µM.

In the case of `COc1ccc(-c2cnc3nc(N)nc(OC(C)C)c3n2)cc1` [Example 38], the midpoint of inhibition, the IC50, lay at 6.2 µM.

The assay is the same for the next values; noted with them: Table 4; LPS 1 μg/ml, 72 hours.
The compound `CCOC(=O)CCC(=O)Nc1cccc(-c2cnc3nc(N)nc(N4CCOCC4)c3n2)c1` [Example 94, 2-amino-4-morpholino-6-(3-ethylsuccinylaminophenyl)pteridine] came in with an IC50 of 5.5 µM.

In turn, `CCOC(=O)CCCOc1ccc(-c2cnc3nc(N)nc(N4CCOCC4)c3n2)cc1` [Example 108, 2-amino-4-morpholino-6-(4-phenoxy-butyric acid ethyl ester) pteridine] displayed an IC50 of 0.9 µM.

The next assay has as its system Peripheral blood mononuclear cells. The assay can be described thus: Mixed lymphocyte reaction (MLR) test. The class given is cell-based, human. The settings on record: Homo sapiens, PBMC; Table 3; 50% suppression of the MLR. On the procedure:
Pteridine derivatives were first dissolved (10 mM) in dimethylsulfoxide (hereinafter referred as DMSO) and further diluted in culture medium before use for the following in vitro experiments. The commercially available culture medium consisted of RPMI-1640+10% foetal calf serum (FCS). Some pteridine derivatives described the previous examples were tested in the following lymphocyte activation tests:
(§2) Peripheral blood mononuclear cells (hereinafter referred as PBMC) were isolated from heparinized peripheral blood by density gradient centrifugation over Lymphoprep (Nycomed, Maorstua, Norway). Allogeneic PBMC or Eppstein-Barr Virus-transformed human B cells [commercially available under the trade name RPMI1788 (ATCC name CCL156)] which strongly express B7-1 and B7-2 antigens were used as stimulator cells after irradiation with 30 Gy. MLR was performed in triplicate wells. After 5 days incubation at 37° C., 1 μCi [^3H]-thymidine was added to each cup. After a further 16 hours incubation, cells were harvested and counted in a β-counter. Inhibition of proliferation by a compound (drug) described in some of the previous examples was counted using the formula:
[formula] wherein cpm is the thymidine count per minute. The MLR assay is regarded by those skilled in the art as an in vitro analogue of the transplant rejection since it is based on the recognition of allogeneic major histocompatibility antigens on the stimulator leukocytes, by responding lymphocytes. Assays for CD3 and CD 28
Pteridine derivatives were first dissolved (10 mM) in dimethylsulfoxide (hereinafter referred as DMSO) and further diluted in culture medium before use for the following in vitro experiments. The commercially available culture medium consisted of RPMI-1640+10% foetal calf serum (FCS). Some pteridine derivatives described in the previous examples (as indicated in table 3 below) were tested in the following mixed lymphocyte reaction (MLR) assay.
as §2, with “CCL156)]which” for “CCL156)] which”
[formula] wherein cpm is the thymidine count per minute. The MLR assay is regarded by those skilled in the art as an in vitro analogue of the transplant rejection since it is based on the recognition of allogeneic major histocompatibility antigens on the stimulator leukocytes, by responding lymphocytes.
For the compound `Nc1cccc(-c2cnc3nc(N)nc(N4CCOCC4)c3n2)c1` [Example 75, 2-amino-4-morpholino-6-(3-aminophenyl)pteridine], the IC50 was 4.1 µM.

As for `Nc1nc(N2CCOCC2)c2nc(-c3ccc(NC(=O)c4ccccc4)cc3)cnc2n1` [Example 76, 2-amino-4-morpholino-6-(4-benzoylaminophenyl)pteridine], the 50% inhibitory concentration (IC50) worked out at 2.1 µM.

For `Nc1nc(N2CCOCC2)c2nc(-c3ccc(NC(=O)COc4ccccc4)cc3)cnc2n1` [Example 77, 2-amino-4-morpholino-6-(4-phenoxyacetylaminophenyl)pteridine], the IC50 was 2.5 µM.

`CCC(=O)Nc1ccc(-c2cnc3nc(N)nc(N4CCOCC4)c3n2)cc1` [Example 78, 2-amino-4-morpholino-6-(4-propionylaminophenyl)pteridine] had an IC50 of 6.5 µM.

Consider `Nc1nc(N2CCOCC2)c2nc(-c3ccc(NC(=O)C4CCCCC4)cc3)cnc2n1` [Example 80, 2-amino-4-morpholino-6-(4-cyclohexanoylaminophenyl)pteridine], for which inhibition was half-maximal at 4.1 µM (IC50).

`Nc1nc(N2CCOCC2)c2nc(-c3ccc(NC(=O)c4ccncc4)cc3)cnc2n1` [Example 83, 2-amino-4-morpholino-6-(4-isonicotinoylaminophenyl)pteridine] yielded an IC50 of 3.9 µM.

On to `Nc1nc(N2CCOCC2)c2nc(-c3cccc(NC(=O)c4ccccc4)c3)cnc2n1` [Example 88, 2-amino-4-morpholino-6-(3-benzoylaminophenyl)pteridine], for which the IC50 came out at 4.9 µM.

`Nc1nc(N2CCOCC2)c2nc(-c3cccc(NS(=O)(=O)c4ccccc4)c3)cnc2n1` [Example 89, 2-amino-4-morpholino-6-(3-benzensulfonylaminophenyl)pteridine]: the half-inhibitory concentration (IC50) was 0.8 µM.

`Nc1nc(N2CCOCC2)c2nc(-c3cccc(NC(=O)COc4ccccc4)c3)cnc2n1` [Example 90, 2-amino-4-morpholino-6-(3-phenoxyacetylaminophenyl)pteridine] had a half-inhibitory concentration (IC50) of 10 µM.

The compound `Nc1nc(N2CCOCC2)c2nc(-c3cccc(NC(=O)c4ccncc4)c3)cnc2n1` [Example 91, 2-amino-4-morpholino-6-(3-isonicotinoylaminophenyl)pteridine] registered a half-inhibitory concentration (IC50) of 10 µM.

For `Nc1nc(N2CCOCC2)c2nc(-c3cccc(NC(=O)C4CCCCC4)c3)cnc2n1` [Example 92, 2-amino-4-morpholino-6-(3-cyclohexanoylaminophenyl)pteridine], the half-maximal inhibitory concentration (IC50) was 2.9 µM.

Turning to `Nc1nc(N2CCOCC2)c2nc(-c3cccc(NC(=O)COCc4ccccc4)c3)cnc2n1` [Example 96, 2-amino-4-morpholino-6-(3-benzyloxyacetylaminophenyl)pteridine], the IC50 was found to be 4.1 µM.

`COCCOc1ccc(-c2cnc3nc(N)nc(N4CCOCC4)c3n2)cc1` [Example 110, 2-amino-4-morpholino-6-(4-(2-methoxyethoxy)-phenyl)pteridine] showed a concentration for half-maximal inhibition (IC50) of 5.4 µM.

The assay is the same for the next values; noted with them: Table 3; 50% suppression of the MLR.
With `COc1ccc(-c2cnc3nc(NCc4cccs4)nc(NCc4cccs4)c3n2)cc1OC` [Example 68, 2,4-di-(thienyl-2-methylamino)-6-(3,4-dimethoxy-Phenyl) pteridine], the IC50 stood at 0.8 µM.

Regarding `CC(=O)Nc1cccc(-c2cnc3nc(N)nc(N4CCOCC4)c3n2)c1` [Example 73, 2-amino-4-morpholino-6-(3-acetanilide)pteridine], the half-maximal inhibitory concentration (IC50) is 6.4 µM.

In the case of `Nc1nc(N2CCOCC2)c2nc(-c3ccc(NC(=O)c4ccco4)cc3)cnc2n1` [Example 79, 2-amino-4-morpholino-6-(4-furoylaminophenyl)pteridine], the 50% inhibitory concentration (IC50) stood at 7.8 µM.

Take `Nc1nc(N2CCOCC2)c2nc(-c3ccc(NC(=O)c4cccc5ccccc45)cc3)cnc2n1` [Example 84, 2-amino-4-morpholino-6-(4-naphtoylaminophenyl)pteridine]: the concentration for half-maximal inhibition (IC50) turned out to be 4 µM.

Compound `CC(C)(C)OC(=O)N[C@H](Cc1ccccc1)C(=O)Nc1cccc(-c2cnc3nc(N)nc(N4CCOCC4)c3n2)c1` [Example 99, 2-amino-4-morpholino-6-[3-Boc-(D)-phenylalanine-aminophenyl]pteridine] returned a 50% inhibitory concentration (IC50) of 4.1 µM.
